tested on: MiaPaCa2 cells; test: cell-based HT lactate assay, colorimetric/fluorometric detection (inhibition of lactate production); conditions: Homo sapiens, MIA PaCa-2; class symbols, 0 to 3 pluses
Method: Cell-based HT Lactate assay is a miniaturized Biovision Lactate Colorimetric/Fluorometric Assay Kit (Cat #K607-100). The assay is roughly a 3.5 hour assay run in a 1536 plate format. Cell number optimization should be run for each cell line to achieve an optimal number in which lactate production equals roughly 90% of the standard curve range. Cell number per well optimization has been performed with the following cell lines: MiaPaCa2—500 cells/well, SNU398—500 cells/well, and P493—500 cells/well.
The lactate activity in Table 8 is represented by 0 to 3 pluses as follows: +++<1 μM; ++1-10 μM; +10-57 μM; and −>57 μM.

SMILES | IC50 [nM]
NS(=O)(=O)c1ccc(Cc2c(-c3cccc(Oc4ccc(F)cc4)c3)nn(-c3nc(C(=O)O)cs3)c2CC2CC2)cc1 [Compound 507, 2-(5-(cyclopropylmethyl)-3-(3-(4-fluorophenoxy)phenyl)-4-(4-sulfamoylbenzyl)-1H-pyrazol-1-yl)thiazole-4-carboxylic Acid] | 1000 to 10000
NS(=O)(=O)c1ccc(Cc2c(-c3ccc(F)c(F)c3)nn(-c3nc(C(=O)O)cs3)c2O)cc1 [Compound 53, 2-(3-(3,4-difluorophenyl)-5-hydroxy-4-(4-sulfamoylbenzyl)-1H-pyrazol-1-yl)thiazole-4-carboxylic acid] | > 57000
Cc1ccc(-c2cc(-c3nn(-c4nc(C(=O)O)cs4)c(CC4CC4)c3Cc3ccc(S(N)(=O)=O)cc3F)ccc2F)cc1 [Compound 472, 2-(5-(cyclopropylmethyl)-3-(6-fluoro-4′-methyl-[1,1′-biphenyl]-3-yl)-4-(2-fluoro-4-sulfamoylbenzyl)-1H-pyrazol-1-yl)thiazole-4-carboxylic acid] | < 1000
NS(=O)(=O)c1ccc(Cc2c(-c3cccc(OC4CCCC4)c3)nn(-c3nc(C(=O)O)cs3)c2CC2CC2)cc1 [Compound 477, 2-(3-(3-(cyclopentyloxy)phenyl)-5-(cyclopropylmethyl)-4-(4-sulfamoylbenzyl)-1H-pyrazol-1-yl)thiazole-4-carboxylic Acid] | < 1000
NS(=O)(=O)c1ccc(Cc2c(-c3ccc(F)c(OC4CC4)c3)nn(-c3nc(C(=O)O)cs3)c2CC2CC2)cc1F [Compound 471, 2-(3-(3-cydopropoxy-4-fluorophenyl)-5-(cyclopropylmethyl)-4-(3-fluoro-4-sulfamoylbenzyl)-1H-pyrazol-1-yl)thiazole-4-carboxylic acid] | 1000 to 10000
CC(C)Oc1cccc(-c2nn(-c3nc(C(=O)O)cs3)c(CC3CC3)c2Cc2ccc(S(N)(=O)=O)cc2)c1 [Compound 504, 2-(5-(cyclopropylmethyl)-3-(3-isopropoxyphenyl)-4-(4-sulfamoylbenzyl)-1H-pyrazol-1-yl)thiazole-4-carboxylic Acid] | 1000 to 10000
NS(=O)(=O)c1ccc(Cc2c(-c3cccc(Nc4ccccc4)c3)nn(-c3nc(C(=O)O)cs3)c2CC2CC2)cc1 [Compound 485, 2-(5-(cyclopropylmethyl)-3-(3-(phenylamino)phenyl)-4-(4-sulfamoylbenzyl)-1H-pyrazol-1-yl)thiazole-4-carboxylic acid] | 1000 to 10000
NS(=O)(=O)c1ccc(Cc2c(-c3cccc(-c4ccccc4)c3)nn(-c3nc(C(=O)O)cs3)c2O)cc1 [Compound 54, 2-(3-([1,1′-biphenyl]-3-yl)-5-hydroxy-4-(4-sulfamoylbenzyl)-1H-pyrazol-1-yl)thiazole-4-carboxylic acid] | > 57000

same assay, conditions: class symbols, 0 to 3 pluses

SMILES | IC50 [nM]
N[S+](=O)([O-])c1ccc(Cc2c(-c3cccc(-c4ccccc4)c3)nn(-c3nc(C(=O)O)cs3)c2CC2CC2)cc1 [Compound 276] | < 1000
N[S+](=O)([O-])c1ccc(Cc2c(-c3cccc(C#CC4CCCC4)c3)nn(-c3nc(C(=O)O)cs3)c2CC2CC2)cc1F [Compound 432] | < 1000
CCOC(=O)c1csc(-n2nc(-c3ccc(F)c(C#CC4CCCC4)c3)c(Cc3ccc(S(N)(=O)=O)c(F)c3)c2C2CC2)n1 [Compound 434] | > 57000

target: Human LDHA (Homo sapiens (Human), UniProt P00338); test: human LDHA primary biochemical assay (resazurin/diaphorase coupled, fluorescence); conditions: LDHA inhibitory activity, activity level based on IC50 (Table 7)
From the text: Test compounds were placed in a Greiner Bio-One (Monroe, N.C.) 1536-well black solid bottom assay plate. 200 millimolar (mM) Tris HCl, pH 7.4, 100 micromolar […] EDTA and 0.01% TWEEN-20™, final concentration, was used as the assay buffer. The LDHA reagent was 2 nanomolar (nM) Human LDHA (Meridian Life Science, Inc., Memphis, Tenn.), final concentration, in assay buffer.

SMILES | IC50 [nM]
N[S+](=O)([O-])c1ccc(Cc2c(-c3cccc(C#CC4CCCC4)c3)nn(-c3nc(C(=O)O)cs3)c2CC2CC2)cc1F [Compound 432] | < 100
NS(=O)(=O)c1ccc(Cc2c(-c3cccc(Oc4ccc(F)cc4)c3)nn(-c3nc(C(=O)O)cs3)c2CC2CC2)cc1 [Compound 507, 2-(5-(cyclopropylmethyl)-3-(3-(4-fluorophenoxy)phenyl)-4-(4-sulfamoylbenzyl)-1H-pyrazol-1-yl)thiazole-4-carboxylic Acid] | < 100
CCOC(=O)c1csc(-n2nc(-c3ccc(F)c(C#CC4CCCC4)c3)c(Cc3ccc(S(N)(=O)=O)c(F)c3)c2C2CC2)n1 [Compound 434] | 1000 to 57000
NS(=O)(=O)c1ccc(Cc2c(-c3cccc(OCc4ccccc4)c3)nn(-c3nc(C(=O)O)cs3)c2CC2CC2)cc1 [Compound 339] | < 100
COc1c(Cc2ccc(S(N)(=O)=O)cc2)c(-c2ccc(F)c(F)c2)nn1-c1nc(C(=O)O)cs1 [Compound 455, 2-(3-(3,4-difluorophenyl)-5-methoxy-4-(4-sulfamoylbenzyl)-1H-pyrazol-1-yl)thiazole-4-carboxylic acid] | 100 to 1000
NS(=O)(=O)c1ccc(Cc2c(-c3ccc(F)c(/C=C/C4CC4)c3)nn(-c3nc(C(=O)O)cs3)c2CC2CC2)cc1F [Compound 532, (E)-2-(5-(cyclopropylmethyl)-3-(3-(2-cyclopropylvinyl)-4-fluorophenyl)-4-(3-fluoro-4-sulfamoylbenzyl)-1H-pyrazol-1-yl)thiazole-4-carboxylic acid] | < 100
COc1ccc(-c2cc(O)n(-c3nc(C(=O)O)cs3)n2)cc1 [Compound 424] | > 57000
NS(=O)(=O)c1ccc(Cc2cn(-c3nc(C(=O)O)cs3)nc2-c2ccc(F)c(-c3cccc(Cl)c3)c2)cc1 [Compound 457, 2-(3-(3′-chloro-6-fluoro-[1,1′-biphenyl]-3-yl)-4-(4-sulfamoylbenzyl)-1H-pyrazol-1-yl)thiazole-4-carboxylic acid] | < 100
Cc1ccc(-c2cccc(-c3c(Cc4ccc([S+](N)(=O)[O-])c(F)c4)c(C4CC4)nn3-c3nc(C(=O)O)cs3)c2)cc1 [Compound 346] | 1000 to 57000
NS(=O)(=O)c1ccc(Cc2c(-c3cccc(-c4ccc(F)cc4)c3)nn(-c3nc(C(=O)O)cs3)c2C2CC2)c(F)c1 [Compound 357] | < 100
NS(=O)(=O)c1ccc(Cc2cn(-c3nc(C(=O)O)cs3)nc2-c2ccc(F)c(-c3cc(Cl)cc(Cl)c3)c2)cc1 [Compound 514, 2-(3-(3′,5′-dichloro-6-fluoro-[1,1′-biphenyl]-3-yl)-4-(4-sulfamoylbenzyl)-1H-pyrazol-1-yl)thiazole-4-carboxylic acid] | 1000 to 57000

same assay, conditions: LDHA inhibitory activity, assay of Example 1; activity level classes

SMILES | IC50 [nM]
Nc1c(Cc2ccc(S(N)(=O)=O)cc2)c(-c2ccccc2)nn1-c1nccc(O)n1 [Compound 152, 4-((5-amino-1-(4-hydroxypyrimidin-2-yl)-3-phenyl-1H-pyrazol-4-yl)methyl)benzenesulfonamide] | > 57000
Cn1ncc(C(=O)n2nc(-c3ccccc3)c(Cc3ccc(S(N)(=O)=O)cc3)c2N)c1N [Compound 143, 4-((5-amino-1-(5-amino-1-methyl-1H-pyrazole-4-carbonyl)-3-phenyl-1H-pyrazol-4-yl)methyl)benzenesulfonamide] | > 57000
NS(=O)(=O)c1ccc(Cc2cn(-c3nc(Br)cs3)nc2-c2ccccc2)cc1 [Compound 235] | 1000 to 57000
CCOC(=O)c1csc(-n2nc(-c3cccc(OC4CCCC4)c3)c(Cc3ccc(S(N)(=O)=O)c(F)c3)c2CC2CC2)n1 [Compound 333] | 1000 to 57000
COC(=O)c1csc(-n2nc(-c3ccccc3)c(Cc3ccc(S(N)(=O)=O)cc3)c2Cc2nnn[nH]2)n1 [Compound 133] | > 57000
NS(=O)(=O)c1ccc(Cc2c(-c3ccc(F)c(F)c3)nn(-c3nc(C(=O)O)cs3)c2C(F)(F)F)cc1 [Compound 39, 2-(3-(3,4-difluorophenyl)-4-(4-sulfamoylbenzyl)-5-(trifluoromethyl)-1H-pyrazol-1-yl)thiazole-4-carboxylic acid] | < 100
Nc1c(Cc2ccc(S(N)(=O)=O)cc2)c(-c2ccccc2)nn1-c1nc(C(F)(F)F)cs1 [Compound 137, 4-((5-amino-3-phenyl-1-(4-(trifluoromethyl)thiazol-2-yl)-1H-pyrazol-4-yl)methyl)benzenesulfonamide] | > 57000
NS(=O)(=O)c1ccc(Cc2c(-c3cccc4ccccc34)nn(-c3nc(C(=O)O)cs3)c2O)cc1 [Compound 81, 2-(5-hydroxy-3-(naphthalen-1-yl)-4-(4-sulfamoylbenzyl)-1H-pyrazol-1-yl)thiazole-4-carboxylic acid] | 1000 to 57000
CC(C)(C)OC(=O)c1csc(-n2nc(-c3ccc(F)c(F)c3)c(Cc3cccc(S(N)(=O)=O)c3)c2O)n1 [Compound 117, tert-butyl 2-(3-(3,4-difluorophenyl)-5-hydroxy-4-(3-sulfamoylbenzyl)-1H-pyrazol-1-yl)thiazole-4-carboxylate] | > 57000

same assay, conditions: read-out: Inhibitory activity IC50

SMILES | IC50 [nM]
Nc1c(Cc2ccc(S(N)(=O)=O)cc2)c(-c2ccccc2)nn1C(=O)c1cccc(F)c1 [Compound 85, 4-((5-amino-1-(3-fluorobenzoyl)-3-phenyl-1H-pyrazol-4-yl)methyl)benzenesulfonamide] | 1000 to 57000
NS(=O)(=O)c1ccc(Cc2cn(-c3nc(C(=O)O)cs3)c3c(F)cccc23)cc1 [Compound 202, 2-(7-fluoro-3-(4-sulfamoylbenzyl)-1H-indol-1-yl)thiazole-4-carboxylic acid] | 100 to 1000
Cc1oc(=O)oc1COC(=O)c1csc(-n2cc(Cc3ccc(S(N)(=O)=O)cc3)c(-c3ccccc3)n2)n1 [Compound 149, (5-methyl-2-oxo-1,3-dioxol-4-yl)methyl 2-(3-phenyl-4-(4-sulfamoylbenzyl)-1H-pyrazol-1-yl)thiazole-4-carboxylate] | 100 to 1000
Cc1csc(-c2cc(-c3c(Cc4ccc(S(N)(=O)=O)c(F)c4)c(CC4CC4)nn3-c3nc(C(=O)O)cs3)ccc2F)c1 [Compound 224, 2-(3-(cyclopropylmethyl)-5-(4-fluoro-3-(4-methylthiophen-2-yl)phenyl)-4-(3-fluoro-4-sulfamoylbenzyl)-1H-pyrazol-1-yl)thiazole-4-carboxylic acid] | > 57000
Cc1ccc(-c2cc(-c3c(Cc4ccc([S+](N)(=O)[O-])c(F)c4)c(CC4CC4)nn3-c3nc(C(=O)O)cs3)ccc2F)cc1 [Compound 287] | 1000 to 57000
NS(=O)(=O)c1ccc(Oc2c(C3CCCCC3)nn(-c3nc(C(=O)O)cs3)c2-c2ccccc2)cc1 [Compound 172, 2-(3-cyclohexyl-5-phenyl-4-(4-sulfamoylphenoxy)-1H-pyrazol-1-yl)thiazole-4-carboxylic acid] | 1000 to 57000
